biological target: T1, purified recombinant human SYK360-635 (Homo sapiens, UniProt P43405); assay: SYK kinase assay: 33P γATP incorporation into biotinylated peptide substrate, IC50 determination; assay type: biochemical; conditions: SYK 0.5 nM, ATP 20 μM, DYE peptide 5 μM, 30° C. 15 min; read-out: IC50 h-syk-gst-sf9-c (inactive-dephosphorylated)
T1 construct: truncated construct of Spleen Tyrosine Kinase aa 360-635; GST; made in house
Method: Determination of IC50 of Spleen Tyrosine Kinase (SYK) Inhibition:
SYK kinase assay is a standard kinase assay adapted to a 96 well plate format. This assay is performed in 96-well format for IC50 determination with […] which represented 10 half log dilutions and a 40 μL reaction volume. The assay measures the incorporation of radiolabeled ^33P γATP into an N-terminally biotinylated peptide substrate, derived from naturally occurring phosphoacceptor consensus sequence (Biotin-11aa DY*E). Phosphorylated products were detected upon termination of reactions with EDTA and the addition of Streptavidin coated beads.
Assay plates: 96-well MultiScreen 0.65 um filter plates (Millipore Cat. No.: MADVNOB10)
BSA: Bovine Serum Albumin Fraction V, fatty acid free (Roche Diagnostics GmbH, Cat. No. 9100221) diluted to a final concentration of 0.1%
Assay Dilution Buffer (ADB): 50 mM HEPES, 0.1 mM EGTA, 0.1 mM Na Vanadate, 0.1 mM β-glycerophosphate, 10 mM MgCl2, 1 mM DTT, 0.1% BSA, pH 7.5
Bead wash buffer: 10 g/L PBS (Phosphate buffered saline) with 2M NaCl+1% phosphoric acid.
DMSO and the mixture was incubated for 10 min at RT.
The kinase reaction was initiated by the addition of 10 μL 4× substrate cocktail containing the DYE peptide substrate [0 or 5 μM], ATP [20 μM] and ^33PγATP [2 μCi/r×n]. After incubation at 30° C. for 15 min, the reaction was terminated by the transfer of 25 μL of the reaction sample to a 96 well 0.65 μm Millipore MADVNOB membrane/plate containing 200 μL 5 mM EDTA and 20% Streptavidine coated beads in PBS.
After the last wash membrane/plates were transferred to an adaptor plate, heat dried for 15 min at 60° C., and 50 μL scintillation cocktail was added to each well and 4 h later the amount of radioactivity was counted in a top counter.

IC50 [nM]	SMILES
592	COc1ccc(Nc2nc(-c3cccc(C(F)=Cc4ccc(C(=O)O)cc4)c3)nc3scnc23)cc1OC (stereo in doubt) [Compound I-31, 4-((E)-2-{3-[7-(3,4-Dimethoxy-phenylamino)-thiazolo[5,4-d]pyrimidin-5-yl]-phenyl}-2-fluoro-vinyl)-benzoic acid]
421	COc1ccc(Nc2nc(-c3cccc(C(=O)O)c3)nc3scnc23)cc1OC [Compound I-1, 3-[7-(3,4-Dimethoxy-phenylamino)-thiazolo[5,4-d]pyrimidin-5-yl]-benzoic acid]
1110	COc1ccc(Nc2nc(-c3cccc(C(=O)N4CCCNCC4)c3)nc3scnc23)cc1OC [Compound I-2, [1,4]Diazepan-1-yl-{3-[7-(3,4-dimethoxy-phenylamino)-thiazolo[5,4-d]pyrimidin-5-yl]-phenyl}-methanone]
71	CNC(=O)c1ccc(NC(=O)c2cccc(-c3nc(Nc4ccc(OC)c(OC)c4)c4ncsc4n3)c2)cc1 [Compound I-3, 3-(7-(3,4-Dimethoxyphenylamino)thiazolo[5,4-d]pyrimidin-5-yl)-N-(4-(methylcarbamoyl)phenyl)benzamide]
882	COc1ccc(Nc2nc(N3CCC(NC(=O)c4ccc5c(c4)NC(=O)C5)C3)nc3scnc23)cc1OC (centres unmarked) [Compound I-8, N-(1-(7-(3,4-Dimethoxyphenylamino)thiazolo[5,4-d]pyrimidin-5-yl)pyrrolidin-3-yl)-2-oxoindoline-6-carboxamide]
40	COc1ccc(Nc2nc(N3CCC(NC(=O)c4ccc(C(=O)O)c(O)c4)C3)nc3scnc23)cc1OC (centres unmarked) [Compound I-9, 4-(1-(7-(3,4-Dimethoxyphenylamino)thiazolo[5,4-d]pyrimidin-5-yl)pyrrolidin-3-ylcarbamoyl)-2-hydroxybenzoic acid]
111	COc1ccc(Nc2nc(N3CCC(NC(=O)c4ccc(C(=O)O)c(OC)c4)C3)nc3scnc23)cc1OC (centres unmarked) [Compound I-10, 4-(1-(7-(3,4-Dimethoxyphenylamino)thiazolo[5,4-d]pyrimidin-5-yl)pyrrolidin-3-ylcarbamoyl)-2-methoxybenzoic acid]
406	COc1ccc(Nc2nc(N3CCC(NC(=O)c4ccc5cn[nH]c5c4)C3)nc3scnc23)cc1OC (centres unmarked) [Compound I-11, N-(1-(7-(3,4-Dimethoxyphenylamino)thiazolo[5,4-d]pyrimidin-5-yl)pyrrolidin-3-yl)-1H-indazole-6-carboxamide]
933	COc1ccc(Nc2nc(N3CCC(NC(=O)c4cnccn4)C3)nc3scnc23)cc1OC (centres unmarked) [Compound I-12, N-(1-(7-(3,4-Dimethoxyphenylamino)thiazolo[5,4-d]pyrimidin-5-yl)pyrrolidin-3-yl)pyrazine-2-carboxamide]
566	COc1ccc(Nc2nc(N3CCC(NC(=O)c4ccc(N)nc4)C3)nc3scnc23)cc1OC (centres unmarked) [Compound I-13, 6-Amino-N-{1-[7-(3,4-dimethoxy-phenylamino)-thiazolo[5,4-d]pyrimidin-5-yl]-pyrrolidin-3-yl}-nicotinamide]
487	COc1ccc(Nc2nc(N3CCC(NC(=O)c4ccc5[nH]c(=O)[nH]c5c4)C3)nc3scnc23)cc1OC (centres unmarked) [Compound I-14, N-(1-(7-(3,4-Dimethoxyphenylamino)thiazolo[5,4-d]pyrimidin-5-yl)pyrrolidin-3-yl)-2-oxo-2,3-dihydro-1H-benzo[d]imidazole-5-carboxamide]
45	COc1ccc(Nc2nc(-c3cccc(C(=O)Nc4ccc(-c5nnc(S)o5)cc4)c3)nc3scnc23)cc1OC [Compound I-15, 3-[7-(3,4-Dimethoxy-phenylamino)-thiazolo[5,4-d]pyrimidin-5-yl]-N-[4-(5-mercapto-[1,3,4]oxadiazol-2-yl)-phenyl]-benzamide]
12	COc1ccc(Nc2nc(-c3cccc(C(=O)Nc4ccc(C(=O)O)c(OC)c4)c3)nc3scnc23)cc1OC [Compound I-16, 4-(3-(7-(3,4-Dimethoxyphenylamino)thiazolo[5,4-d]pyrimidin-5-yl)benzamido)-2-methoxybenzoic acid]
980	COc1ccc(Nc2nc(-c3cccc(C(=O)Nc4ccc5[nH]ncc5c4)c3)nc3scnc23)cc1OC [Compound I-18, 3-[7-(3,4-Dimethoxy-phenylamino)-thiazolo[5,4-d]pyrimidin-5-yl]-N-(1H-indazol-5-yl)-benzamide]
56	COc1ccc(Nc2nc(-c3cccc(C(=O)Nc4ccc5cn[nH]c5c4)c3)nc3scnc23)cc1OC [Compound I-19, 3-[7-(3,4-Dimethoxy-phenylamino)-thiazolo[5,4-d]pyrimidin-5-yl]-N-(1H-indazol-6-yl)-benzamide]
566	COc1ccc(Nc2nc(-c3ccc(C(=O)NCCc4ccncc4)cc3)nc3scnc23)cc1OC [Compound I-20, 4-[7-(3,4-Dimethoxy-phenylamino)-thiazolo[5,4-d]pyrimidin-5-yl]-N-(2-pyridin-4-yl-ethyl)-benzamide]
1850	COc1ccc(Nc2nc(N3CCC(C(=O)NCCc4ccncc4)CC3)nc3scnc23)cc1OC [Compound I-21, 1-(7-(3,4-Dimethoxyphenylamino)thiazolo[5,4-d]pyrimidin-5-yl)-N-(2-(pyridin-4-yl)ethyl)piperidine-4-carboxamide]
4880	COc1ccc(Nc2nc(N3CCC(C(=O)NCCc4cc[nH]c(=O)c4)CC3)nc3scnc23)cc1OC [Compound I-22, 1-(7-(3,4-Dimethoxyphenylamino)thiazolo[5,4-d]pyrimidin-5-yl)-N-(2-(2-oxo-1,2-dihydropyridin-4-yl)ethyl)piperidine-4-carboxamide]
930	COc1ccc(Nc2nc(-c3ccc(C(=O)NCCc4cc[nH]c(=O)c4)cc3)nc3scnc23)cc1OC [Compound I-23, 4-(7-(3,4-Dimethoxyphenylamino)thiazolo[5,4-d]pyrimidin-5-yl)-N-(2-(2-oxo-1,2-dihydropyridin-4-yl)ethyl)benzamide]
916	COc1ccc(Nc2nc(-c3ccc(C(=O)NCCc4ccn(C)c(=O)c4)cc3)nc3scnc23)cc1OC [Compound I-24, 4-[7-(3,4-Dimethoxy-phenylamino)-thiazolo[5,4-d]pyrimidin-5-yl]-N-[2-(1-methyl-2-oxo-1,2-dihydro-pyridin-4-yl)-ethyl]-benzamide]
2060	COC(=O)c1cccc(-c2nc(Nc3cccc(S(C)(=O)=O)c3)c3ncsc3n2)c1 [Compound I-26, Methyl 3-(7-(3-(methylsulfonyl)phenylamino)thiazolo[5,4-d]pyrimidin-5-yl)benzoate]
4610	CS(=O)(=O)c1cccc(Nc2nc(-c3cccc(C(=O)O)c3)nc3scnc23)c1 [Compound I-27, 3-[7-(3-Methanesulfonyl-phenylamino)-thiazolo[5,4-d]pyrimidin-5-yl]-benzoic acid]
3130	COCC1CCCN1c1cccc(Nc2nc(-c3cccc(C(=O)O)c3)nc3scnc23)c1 (centres unmarked) [Compound I-28, 3-{7-[3-(2-Methoxymethyl-pyrrolidin-1-yl)-phenylamino]-thiazolo[5,4-d]pyrimidin-5-yl}-benzoic acid]
1490	COc1ccc(Nc2nc(-c3cccc(CNc4ccc(C(=O)OC(C)(C)C)cc4)c3)nc3scnc23)cc1OC [Compound I-29, tert-Butyl 4-(3-(7-(3,4-dimethoxyphenylamino)thiazolo[5,4-d]pyrimidin-5-yl)benzylamino)benzoate]
18	COc1ccc(Nc2nc(-c3cccc(CNc4ccc(C(=O)O)cc4)c3)nc3scnc23)cc1OC [Compound I-30, 4-(3-(7-(3,4-Dimethoxyphenylamino)thiazolo[5,4-d]pyrimidin-5-yl)benzylamino)benzoic acid]
60	COc1ccc(Nc2nc(-c3cccc(/C=C/c4ccc(C(=O)O)cc4)c3)nc3scnc23)cc1OC [Compound I-32, (E)-4-(3-(7-(3,4-Dimethoxyphenylamino)thiazolo[5,4-d]pyrimidin-5-yl)styryl)benzoic acid]
350	COc1ccc(Nc2nc(-c3cccc(CCc4ccc(C(=O)O)cc4)c3)nc3scnc23)cc1OC [Compound I-33, 4-(3-(7-(3,4-Dimethoxyphenylamino)thiazolo[5,4-d]pyrimidin-5-yl)phenethyl)benzoic acid]
2470	O=C(O)c1cccc(-c2nc(Nc3cccc(N4C[C@H]5CC[C@@H](C4)O5)c3)c3ncsc3n2)c1 [Compound I-34, 3-{7-[(1R,5S)-3-(8-Oxa-3-aza-bicyclo[3.2.1]oct-3-yl)-phenylamino]-thiazolo[5,4-d]pyrimidin-5-yl}-benzoic acid]
418	COc1ccc(Nc2nc(N3CCC(NC(=O)c4ccc5[nH]ncc5c4)C3)nc3scnc23)cc1OC (centres unmarked) [Compound I-35, N-(1-(7-(3,4-Dimethoxyphenylamino)thiazolo[5,4-d]pyrimidin-5-yl)pyrrolidin-3-yl)-1H-indazole-5-carboxamide]

From patent US8921383B2, “Thiazolopyrimidine compounds” (Hoffmann-La Roche Inc., priority 2011, dated 2014)
